≈ marks a conversion by molar mass, not a printed value. Like-named read-outs stand apart in the source and are kept apart here.
How the values were obtained:
[1] = test system: Mycobacterium tuberculosis CNCTC My 331/88 (identical with H37Rv and ATCC 2794; MTv H37Rv); experiment: in vitro antimycobacterial MIC, dilution micromethod in Šula's semisynthetic medium; assay type: cell-based
[2] = test system: M. kansasii DSM 44162 (MK DSM); experiment: in vitro antimycobacterial MIC, broth dilution micromethod in Middlebrook 7H9; assay type: cell-based; conditions: Mycobacterium kansasii, DSM 44162 / DSM 7, 168 h
[3] = test system: M. smegmatis ATCC 700084 (MS); experiment: as above; assay type: cell-based, Mycobacterium smegmatis; conditions: Mycolicibacterium smegmatis, ATCC700084, 72 h
[4] = test system: M. marinum CAMP 5644 (MM); experiment: as above; assay type: cell-based, Mycobacterium marinum; conditions: Mycobacterium marinum, 504 h
[5] = surface tension, drop count method, Traube stalagmometer; assay type: physicochemical; conditions: aqueous solution c = 2.0 × 10^−3 M, 21 °C; water γ = 0.07259 N/m
Method: Surface tension (relative surface activity; γ) of aqueous solutions of the compounds 1a–p (c = 2.0 × 10^−3 M) was determined by a drop count technique using a Traube stalagmometer. All evaluated substances were able to decrease surface tension of water (γ = 0.07259 N/m) at 21 °C.
Surface tension (relative surface activity; γ) of the derivatives 1a–p was determined by a drop count method using a glassy Traube stalagmometer (Kavalier Glass, Prague, Czech Republic). Number of drops of compounds’ and reference solutions were counted between upper and lower marks of the stalagmometer. Aqueous solutions of the molecules 1a–p were prepared with distilled, deionized water (c = 2.0 × 10^−3 M). […] The drops were allowed to form at constant temperature 21 °C. The experimental procedure was described in a paper. Current measurements were done in six replicates and average γ values (in N/m units) were reported (Table 1).

[6] = electronic properties, UV/Vis spectrophotometry of methanolic solutions; assay type: physicochemical; conditions: methanolic solution c = 8.0 × 10^−5 M; for log ε2 (Ch-T): charge-transfer maximum λ2 (Ch-T) = 236–238 nm; for log ε1: λ1 = 208–210 nm; for log ε3: λ3 = 278–280 nm
Description: Electronic properties of the molecules 1a–p (Table 1) were characterized by logarithms of molar absorption coefficients (log ε) of their methanolic solutions (c = 8.0 × 10^−5 M) investigated in the UV/Vis region of an electromagnetic spectrum.
Positions of these absorption bands in the spectrum were typical for derivatives of (substituted) phenylcarbamic acid and the bands were assigned as first local excitation (λ3), charge-transfer (λ2 (Ch-T)) and second local excitation (λ1) absorption maxima, respectively. The λ1 and λ2 (Ch-T) maxima of 2-alkoxy substituted compounds 1a–d and 1i–l were slightly lower compared to those of their 3-alkoxy substituted positional isomers 1e–h and 1m–p (Table 1), respectively.
The UV/Vis spectra of methanolic solutions of analyzed compounds 1a–p (c = 8.0 × 10^−5 M) were observed on the 8452A Diode Array spectrophotometer HP-8452A (Hewlett-Packard, Palo Alto, CA, USA) at 21 °C. Methanol for UV-spectroscopy (Merck, Darmstadt, Germany) was used for preparation of these solutions. Results of the UV/Vis analyses were collected and stored digitally using the ChemStation controller software (Agilent Technologies, Waldbronn, Germany). The HP-8452A apparatus measured a complete range of compounds’ spectrum from 190 nm to 820 nm.
The log ε values for presently observed absorption maxima were calculated following the Lambert-Beer’s law, which was discussed in [35], for example, and expressed by Equation (16):A = ε × c × l(16) where the A parameter represented absorbance of a compound’s solution, the ε descriptor was a molar absorption coefficient (in L/mol/cm units) and l was path length (in cm units).

[7] = Mycobacterium tuberculosis, 336 h, 14-day cultivation, read-out: MIC MTv H37Rv 14-d
[8] = Mycobacterium tuberculosis, 504 h, 21-day cultivation, read-out: MIC MTv H37Rv 21-d
[9] = 7-day cultivation, 37 °C, read-out: MIC MK DSM 7-d
[10] = read-out: MIC MS 3-d, 3-day cultivation, 37 °C
[11] = 21-day cultivation, 28 °C, read-out: MIC MM 21-d
[12] = read-out: MIC MK DSM 7-d, 7-day cultivation, 37 °C
[13] = read-out: MIC MM 21-d, 21-day cultivation, 28 °C
[14] = 3-day cultivation, 37 °C, read-out: MIC MS 3-d

`CCCCOc1ccccc1NC(=O)OC(CN(CCC)CCC)CN1CCCCCC1` (stereo not drawn) [1i] gave an MIC [1, 7] of 16 µM (≈ 7.16 µg/mL), an MIC [1, 8] of 32 µM (≈ 14.3 µg/mL) and an MIC [2, 9] of 51 µM (≈ 22.8 µg/mL). For the same compound, the MIC [3, 10] was 203 µM (≈ 90.9 µg/mL), the MIC [4, 11] was 51 µM (≈ 22.8 µg/mL) and the “surface tension γ (relative surface activity)” value [5] was 0.06302 N/m. The “log ε2 (Ch-T)” value [6] was 4.08, the “log ε1” value [6] was 4.44 and the “log ε3” value [6] was 3.57.
`CCCCCOc1ccccc1NC(=O)OC(CN(CCC)CCC)CN1CCCCCC1.O=C(O)C(=O)O` (stereo not drawn) [1j, 1-[2-[({[2-(Pentyloxy)phenyl]amino}carbonyl)oxy]-3-(dipropylammonio)propyl]-azepanium oxalate] showed an MIC [1, 7] of 16 µM, an MIC [1, 8] of 32 µM and an MIC [2, 12] of 50 µM. For the same compound, the MIC [3, 10] was 6.2 µM, the MIC [4, 13] was 50 µM and the “surface tension γ (relative surface activity)” value [5] was 0.06206 N/m. The “log ε2 (Ch-T)” value [6] was 4.22, the “log ε1” value [6] was 4.54 and the “log ε3” value [6] was 3.71.
With `CCCCCCOc1ccccc1NC(=O)OC(CN(CCC)CCC)CN1CCCCCC1` (stereo not drawn) [1k] the MIC [1, 7] was 8 µM (≈ 3.81 µg/mL), the MIC [1, 8] was 16 µM (≈ 7.61 µg/mL) and the MIC [2, 9] was 98 µM (≈ 46.6 µg/mL). For the same compound, the MIC [3, 14] was 390 µM (≈ 186 µg/mL), the MIC [4, 11] was 98 µM (≈ 46.6 µg/mL) and the “surface tension γ (relative surface activity)” value [5] was 0.06065 N/m. For the same compound, the “log ε2 (Ch-T)” value [6] was 4.10, the “log ε1” value [6] was 4.42 and the “log ε3” value [6] was 3.57.
For `CCCCCCCOc1cccc(NC(=O)OC(CN(CCC)CCC)CN2CCCCCC2)c1.O=C(O)C(=O)O` (stereo not drawn) [1l, 1-[2-[({[3-(hept-yloxy)phenyl]amino}carbonyl)oxy]-3-(dipropylammonio)propyl]azepanium oxalate], the MIC [1, 7] was 4 µM, the MIC [1, 8] was 8 µM and the MIC [2, 9] was 382 µM. The MIC [3, 14] was 382 µM, the MIC [4, 11] was 191 µM and the “surface tension γ (relative surface activity)” value [5] was 0.05853 N/m. The “log ε2 (Ch-T)” value [6] was 4.14, the “log ε1” value [6] was 4.44 and the “log ε3” value [6] was 3.59.
For `CCCCOc1cccc(NC(=O)OC(CN(CCC)CCC)CN2CCCCCC2)c1` (stereo not drawn) [1m], the MIC [1, 7] was 8 µM (≈ 3.58 µg/mL), the MIC [1, 8] was 16 µM (≈ 7.16 µg/mL) and the MIC [2, 9] was 7.7 µM (≈ 3.45 µg/mL). The MIC [3, 14] was 30.7 µM (≈ 13.7 µg/mL), the MIC [4, 13] was 15.4 µM (≈ 6.89 µg/mL) and the “surface tension γ (relative surface activity)” value [5] was 0.06298 N/m. For the same compound, the “log ε2 (Ch-T)” value [6] was 4.09, the “log ε1” value [6] was 4.52 and the “log ε3” value [6] was 3.44.
In the case of `CCCCCOc1cccc(NC(=O)OC(CN(CCC)CCC)CN2CCCCCC2)c1.Cl.Cl` (stereo not drawn) [1n, 1-[2-[({[3-(pentyloxy)phenyl]amino}carbonyl)oxy]-3-(di-propylammonio)propyl]azepanium dichloride], the MIC [1, 7] was 4 µM, the MIC [1, 8] was 8 µM and the MIC [2, 12] was 7.5 µM. The MIC [3, 10] was 15 µM, the MIC [4, 13] was 15 µM and the “surface tension γ (relative surface activity)” value [5] was 0.06154 N/m. For the same compound, the “log ε2 (Ch-T)” value [6] was 4.18, the “log ε1” value [6] was 4.56 and the “log ε3” value [6] was 3.52.
With `CCCCCCOc1cccc(NC(=O)OC(CN(CCC)CCC)CN2CCCCCC2)c1.Cl.Cl` (stereo not drawn) [1o, 1-[2-[({[3-(hexyloxy)phenyl]amino}-carbonyl)oxy]-3-(dipropylammonio)propyl]azepanium dichloride] the MIC [1, 7] was 8 µM, the MIC [1, 8] was 16 µM and the MIC [2, 12] was 3.6 µM. For the same compound, the MIC [3, 10] was 7.3 µM, the MIC [4, 13] was 7.3 µM and the “surface tension γ (relative surface activity)” value [5] was 0.05925 N/m. The “log ε2 (Ch-T)” value [6] was 4.01, the “log ε1” value [6] was 4.52 and the “log ε3” value [6] was 3.37.
For `CCCCCCCOc1cccc(NC(=O)OC(CN(CCC)CCC)CN2CCCCCC2)c1.Cl.Cl` (stereo not drawn) [1p, 1-[2-[({[3-(heptyloxy)phenyl]amino}carbonyl)-oxy]-3-(dipropylammonio)propyl]azepanium dichloride], the MIC ([1]; 14-day cultivation, read-out: MIC MTv H37Rv 14-d) was 4 µM, the MIC ([1]; 21-day cultivation, read-out: MIC MTv H37Rv 21-d) was 8 µM and the MIC [2, 12] was 3.6 µM. The MIC [3, 10] was 7.1 µM, the MIC [4, 13] was 7.1 µM and the “surface tension γ (relative surface activity)” value [5] was 0.05692 N/m. The “log ε2 (Ch-T)” value [6] was 4.20, the “log ε1” value [6] was 4.65 and the “log ε3” value [6] was 3.56.

Source: paper PMC6222509, “Dibasic Derivatives of Phenylcarbamic Acid against Mycobacterial Strains: Old Drugs and New Tricks?” (Molecules : A Journal of Synthetic Chemistry and Natural …, 2018)
